The values that follow are results of earlier work, collected in patent publication US20090048110A1, “Orchid Culturing Method” (priority 2005, published 2009).

The data set has as its system Dendrobium. The settings on record: application to the mature pseudobulbs, but not the developing ones.

Consider `c1ccc(CNc2ncnc3nc[nH]c23)cc1` [6-BAP, 6-benzylaminopurine], for which the triggering of spiking entry is “shown to trigger spiking”.
